For orientation: IC50 means the midpoint of a concentration-inhibition curve. The term solubility denotes the concentration that dissolves in the medium under given conditions.

The text below walks through data of ChEMBL document CHEMBL1136981, “Carbamates as potent calcitonin gene-related peptide antagonists with improved solution stability” (Bioorg Med Chem Lett, 2009).

Series [1] addresses Calcitonin gene-related peptide type 1 receptor (Homo sapiens, UniProt Q16602). Briefly: Binding affinity to human CGRP receptor.
A short description of series [2]: Hydrolytic stability assessed as compound remaining in water at 0.15 mg/mL at pH 4 after 4 weeks. It counts as physicochemical. The following applies: read-out: Activity.
A short description of series [3]: Solubility at pH 7. The note with it: buffer. It counts as physicochemical.
Series [4] is described as follows: Oxidative stability assessed as compound remaining in water at 0.15 mg/mL at pH 4 after 48 hrs in presence of free radical generator AAPH. It is filed as physicochemical. The note with it: read-out: Activity.
Series [5] is described as follows: Hydrolytic stability assessed as formation of 8-fluoro-3-(piperidin-4-yl)-3,4-dihydroquinazolin-2(1H)-one in 0.05 M buffer at pH 5 after 12 weeks. It counts as physicochemical. Also on record: scale not given: the % may be the effect or the level left. The following applies: pH 5, 2016 h.
Series [6] in a line: Hydrolytic stability assessed as formation of (R)-2-(4-(8-fluoro-2-oxo-1,2-dihydroquinazolin-3(4H)-yl)piperidine-1-carboxamido)-3-(7-methyl-1H-indazol-5-yl)propanoic acid in 0.05 M buffer at pH 5 after 12 weeks. The following applies: pH 5, 2016 h. The arrangement: scale not given: the % may be the effect or the level left. It counts as physicochemical.
Series [7] in a line: Oxidative stability assessed as formation of N-((R)-1-(1,4'-bipiperidin-1'-yl)-3-(7-methyl-1H-indazol-5-yl)-1-oxopropan-2-yl)-4-(8-fluoro-4-hydroxy-2-oxo-1,2-dihydroquinazolin-3(4H)-yl)piperidine-1-carboxamide in 0.05 M buffer at pH 5 after 12 weeks. It is filed as physicochemical. The note with it: pH 5, 2016 h.

Chain of Calcitonin gene-related peptide type 1 receptor (Q16602 whole entry): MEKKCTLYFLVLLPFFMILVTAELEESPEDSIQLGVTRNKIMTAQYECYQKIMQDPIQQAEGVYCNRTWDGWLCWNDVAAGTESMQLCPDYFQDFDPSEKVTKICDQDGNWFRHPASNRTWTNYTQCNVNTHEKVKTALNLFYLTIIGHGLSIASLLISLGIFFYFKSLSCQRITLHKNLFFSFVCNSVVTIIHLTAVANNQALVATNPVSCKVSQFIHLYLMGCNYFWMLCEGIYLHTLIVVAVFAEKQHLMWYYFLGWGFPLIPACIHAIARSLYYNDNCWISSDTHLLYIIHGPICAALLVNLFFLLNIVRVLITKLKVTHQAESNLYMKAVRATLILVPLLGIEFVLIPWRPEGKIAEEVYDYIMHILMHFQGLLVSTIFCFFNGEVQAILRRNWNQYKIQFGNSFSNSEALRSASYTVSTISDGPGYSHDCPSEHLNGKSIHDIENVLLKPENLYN

Consider `Cc1cc(C[C@@H](OC(=O)N2CCC(N3Cc4ccc(F)cc4NC3=O)CC2)C(=O)N2CCC(N3CCCCC3)CC2)cc2cn[nH]c12`, for which, in series [1], the IC50 is 0.022 nM.
Still for that read-out and setting: then `Cc1cc(C[C@@H](OC(=O)N2CCC(c3cc4cccc(F)c4[nH]c3=O)CC2)C(=O)N2CCC(N3CCCCC3)CC2)cc2cn[nH]c12`, with 0.057 nM; and `Cc1cc(C[C@@H](OC(=O)N2CCC(N3Cc4cccc(F)c4NC3=O)CC2)C(=O)N2CCC(N3CCCCC3)CC2)cc2cn[nH]c12`, with 0.011 nM; and `Cc1cc(C[C@@H](OC(=O)N2CCC(c3cc4ccccc4cn3)CC2)C(=O)N2CCC(N3CCCCC3)CC2)cc2cn[nH]c12`, with 0.18 nM.
Same read-out and setting: next, `Cc1cc(C[C@@H](OC(=O)N2CCC(c3cc4ccccc4[nH]c3=O)CC2)C(=O)N2CCN(C3CCCCC3)CC2)cc2cn[nH]c12`: 0.02 nM.
Regarding `Cc1cc(C[C@@H](OC(=O)N2CCC(c3cc4ccccc4[nH]c3=O)CC2)C(=O)N2CCC(N3CCCCC3)CC2)cc2cn[nH]c12`, in series [2], the remaining at 672 h, 0.15 mg/mL was 99%. The solubility in series [3] was over 50 mg/mL. Also, the concentration for half-maximal inhibition (IC50) in series [1] was found to be 0.017 nM. Also, the remaining at 48 h, 0.15 mg/mL in series [4] stood at 97%.
On to `Cc1cc(C[C@@H](OC(=O)N2CCC(c3cc4ccccc4[nH]c3=O)CC2)C(=O)N2CCN(c3ccc(F)cc3)CC2)cc2cn[nH]c12`, for which the half-inhibitory concentration (IC50) in series [1] turned out to be 0.13 nM.
In the case of `Cc1cc(C[C@@H](NC(=O)N2CCC(N3Cc4cccc(F)c4NC3=O)CC2)C(=O)N2CCC(N3CCCCC3)CC2)cc2cn[nH]c12`, in series [2], the remaining at 672 h, 0.15 mg/mL came to 56%. Also, the remaining at 48 h, 0.15 mg/mL in series [4] was determined as 72%. Also, the Activity came to 0.4% in series [5], 0.2% in series [6] and 2% in series [7].
With `Cc1cc(C[C@@H](OC(=O)N2CCC(c3cc4ccccc4[nH]c3=O)CC2)C(=O)N2CCN(c3ccncc3)CC2)cc2cn[nH]c12`, the 50% inhibitory concentration (IC50) in series [1] stood at 0.063 nM.
Still for that read-out and setting: next, `Cc1cc(C[C@@H](OC(=O)N2CCC(N3Cc4ccccc4NC3=O)CC2)C(=O)N2CCC(N3CCCCC3)CC2)cc2cn[nH]c12`: 0.01 nM.
Still for that read-out and setting: then `Cc1cc(C[C@@H](OC(=O)N2CCC(n3cc(-c4ccccc4)[nH]c3=O)CC2)C(=O)N2CCC(N3CCCCC3)CC2)cc2cn[nH]c12`, with 0.068 nM; and `Cc1cc(C[C@@H](OC(=O)N2CCC(c3cc4ccccc4[nH]c3=O)CC2)C(=O)N2CCC3(CCN(C)CC3)CC2)cc2cn[nH]c12`, with 0.044 nM.
Still for that read-out and setting: next, `Cc1cc(C[C@@H](OC(=O)N2CCC(c3cc4ccccc4[nH]c3=O)CC2)C(=O)N2CCCCC2)cc2cn[nH]c12`: 1.8 nM; `Cc1cc(C[C@@H](OC(=O)N2CCC(c3cc4ccccc4[nH]c3=O)CC2)C(=O)N2CCC(N3CC=CCC3)CC2)cc2cn[nH]c12`: 0.053 nM.
